Results on 23 compounds are retold here after patent publication US9914730B2, “Azaquinazoline inhibitors of Atypical protein Kinase C” (Ignyta, Inc., priority 2012, dated 2018).

For the experiment, the target named is T1, full-length human PKCι (Homo sapiens, UniProt P41743).
T1 construct: Recombinant, full-length human PKCι expressed in Sf21 insect cells is also commercially available; purchased; host or cells: Sf21 insect cells
T1 sequence (P41743 1-596): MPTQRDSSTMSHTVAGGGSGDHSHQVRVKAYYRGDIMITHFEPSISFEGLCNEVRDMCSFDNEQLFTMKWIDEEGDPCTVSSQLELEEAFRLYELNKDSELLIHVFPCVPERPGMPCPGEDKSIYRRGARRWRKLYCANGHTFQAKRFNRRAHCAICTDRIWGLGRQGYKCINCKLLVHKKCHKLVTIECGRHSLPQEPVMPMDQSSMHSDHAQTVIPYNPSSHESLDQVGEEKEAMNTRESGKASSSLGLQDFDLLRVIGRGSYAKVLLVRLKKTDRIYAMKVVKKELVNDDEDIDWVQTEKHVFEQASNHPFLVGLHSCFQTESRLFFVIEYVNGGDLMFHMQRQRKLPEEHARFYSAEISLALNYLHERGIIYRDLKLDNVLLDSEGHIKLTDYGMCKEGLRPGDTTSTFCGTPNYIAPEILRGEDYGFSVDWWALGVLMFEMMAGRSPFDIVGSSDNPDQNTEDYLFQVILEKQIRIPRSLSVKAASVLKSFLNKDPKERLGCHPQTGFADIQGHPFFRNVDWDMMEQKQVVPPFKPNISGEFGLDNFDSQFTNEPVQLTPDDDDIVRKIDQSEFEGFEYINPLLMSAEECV
The experiment can be described thus: PKCι IC50 IMAP assay, full-length PKCι at 150 μM ATP. The following applies: read-out: IC50 in IMAP assay against full length PKCi at 150 μM ATP. The class given is biochemical. From the text:
Assays are based on the ability of PKCι to phosphorylate a commercially available peptide substrate in vitro. The peptide substrate is FAM-PKCε pseudopeptide derived peptide, and comprises the amino acid sequence 5FAM-[…]-NH2. Recombinant, full-length human PKCι expressed in Sf21 insect cells is also commercially available. Recombinant, kinase-domain human PKCι is expressed and purified in-house.
The procedure below explains how dose response curves for inhibitors of PKCι are obtained. The screen described is for a 384 well format but the assay can be adapted to 1536 or other formats as required.
Compounds to be tested are dissolved in 100% DMSO. Compounds are diluted as required to give a final concentration of 4% DMSO (v/v) in the assay. 1 μl is plated into 384 well black low-binding flat bottomed assay plates which are used immediately. Dilutions and additions of compound to assay plates are carried out using Matrix WellMate® and Matrix PlateMate® Plus liquid handling systems.
On the day of the screen PKCι/substrate working solution, and ATP working solution, are prepared in buffer containing 20 mM tris-HCl pH7.5, 10 mM MgCl2, 0.01% Triton X100, 250 μM EGTA and 1 mM DTT. The final concentration of PKCι used varies depending on the batch of protein but is typically 15 pM. The final concentration of peptide substrate in the assay is 100 nM. ATP is used at a final concentration of 150 μM or 25 μM in the assays containing full-length or kinase-domain PKCι respectively, which corresponds to five times or equal to the KM^APP for ATP for each enzyme, respectively. The final buffer concentration in the assay is 18 mM tris-HCl pH7.5, 9 mM MgCl2, 0.009% Triton X100, 225 μM EGTA and 0.9 mM DTT. Relevant controls are included, namely no compound and no enzyme. 5 μl PKCι/substrate working solution at 30 pM and 200 nM, respectively, is added to the wells, followed by 4 μl ATP working solution at 375 μM or 62.5 μM for full-length or kinase-domain PKCι respectively, using a 16 channel Matrix pipette. The reaction is allowed to incubate for 60 minutes at room temperature, before the reaction is stopped and developed by the addition of 20 μl IMAP™ development reagent (Molecular Devices). IMAP development reagent consists of 0.25% (v/v) IMAP progressive binding reagent, 17% (v/v) IMAP progressive binding buffer A and 3% (v/v) IMAP progressive binding buffer B. The plates are then incubated for 2 hours at room temperature before being read using an appropriate plate reader, for example a Molecular Devices HT Analyst or a BMG Pherastar. Plates are read using a fluorescence polarisation protocol with excitation at 485 nm and emission at 530 nm, and dichroic mirror at 505 nm.
Percentage inhibition values are calculated from fluorescence polarisation values, using the no compound and no enzyme control values as 0% and 100% inhibition, respectively. IC50 determination is performed with ExcelFit software (IDBS) using curve fit 205. Z′ factors are determined for each plate tested and are all above 0.5.

pIC50: −log10 of the molar value.

Consider `c1cc(-c2nc(N3CCNCC3)c3c(C4CCC4)cncc3n2)c2cc(C3CCCO3)[nH]c2n1` (centres unmarked) [Example 2185, 5-Cyclobutyl-4-piperazin-1-yl-2-[2-(tetrahydro-furan-2-yl)-1H-pyrrolo[2,3-b]pyridin-4-yl]-pyrido[3,4-d]pyrimidine], for which the pIC50 (usually the IC50 on a negative log10 scale, so that one unit is a factor of ten) was above 7.00.
To `Fc1nc(N2CCOCC2)ccc1Nc1cc(-c2nc(N3CCNCC3)c3c(C4CC4)cncc3n2)ccn1` [Example 731, [4-(5-Cyclopropyl-4-piperazin-1-yl-pyrido[3,4-d]pyrimidin-2-yl)-pyridin-2-yl]-(2-fluoro-6-morpholin-4-yl-pyridin-3-yl)-amine] belongs above 7.00; to `N[C@H](CNc1nc(-c2ccncc2)nc2c(-c3cccc(-c4ccn[nH]4)c3)nccc12)Cc1ccccc1` [Example 120, N-[(2S)-2-amino-3-phenylpropyl]-8-[3-(1H-pyrazol-5-yl)phenyl]-2-(pyridin-4-yl)pyrido[3,4-d]pyrimidin-4-amine], 5.00 to 6.00.
Turning to `C[C@@H]1CN(c2nc(-c3ccnc(NC4CCN(CC(F)(F)F)CC4)c3)nc3cncc(C4CC4)c23)C[C@H](C)N1` [Example 2073, {4-[5-Cyclopropyl-4-((cis)-3,5-dimethyl-piperazin-1-yl)-pyrido[3,4-d]pyrimidin-2-yl]-pyridin-2-yl}-[1-(2,2,2-trifluoro-ethyl)-piperidin-4-yl]-amine], the pIC50 was above 7.00.
Regarding `COc1cncc2nc(-c3ccnc(Nc4cncnc4)c3)nc(N[C@@H]3CCNC3)c12` [Example 385, {5-Methoxy-2-[2-(pyrimidin-5-ylamino)-pyridin-4-yl]-pyrido[3,4-d]pyrimidin-4-yl}-(R)-pyrrolidin-3-yl-amine], the pIC50 was 6.00 to 7.00.
With `COc1cncc2nc(-c3ccnc(NC(=O)[C@@H](C)c4ccccc4)c3)nc(N[C@@H]3CCNC3)c12` [Example 407, (S)-N-{4-[5-Methoxy-4-((R)-pyrrolidin-3-ylamino)-pyrido[3,4-d]pyrimidin-2-yl]-pyridin-2-yl}-2-phenyl-propionamide], the pIC50 is 6.00 to 7.00.
Take `C[C@@H](Nc1cc(-c2nc(N3CCNCC3)c3c(C4CC4)cncc3n2)ccn1)c1c(F)cccc1F` [Example 653, [4-(5-Cyclopropyl-4-piperazin-1-yl-pyrido[3,4-d]pyrimidin-2-yl)-pyridin-2-yl]-[(R)-1-(2,6-difluoro-phenyl)-ethyl]-amine]: the pIC50 was above 7.00.
The value for `Fc1ccc(F)c(Nc2cc(-c3nc(N4CCNCC4)c4c(Cl)cncc4n3)ccn2)c1F` [Example 257, [4-(5-Chloro-4-piperazin-1-yl-pyrido[3,4-d]pyrimidin-2-yl)-pyridin-2-yl]-(2,3,6-trifluoro-phenyl)-amine] was 6.00 to 7.00; that for `N[C@H](CNc1nc(-c2ccncc2)nc2c(-c3ccccc3Cl)nccc12)Cc1ccccc1` [Example 96, N-[(2S)-2-amino-3-phenylpropyl]-8-(2-chlorophenyl)-2-(pyridin-4-yl)pyrido[3,4-d]pyrimidin-4-amine] was 6.00 to 7.00; that for `COc1cncc2nc(-c3ccnc(Nc4cc(F)ccc4F)c3)nc(N3CCNCC3)c12` [Example 440, (2,5-Difluoro-phenyl)-[4-(5-methoxy-4-piperazin-1-yl-pyrido[3,4-d]pyrimidin-2-yl)-pyridin-2-yl]-amine] was above 7.00.
As for `Fc1ccc(-c2cc3c(-c4nc(N5CCNCC5)c5c(C6CC6)cncc5n4)ccnc3[nH]2)cc1` [Example 1230, 5-Cyclopropyl-2-[2-(4-fluoro-phenyl)-1H-pyrrolo[2,3-b]pyridin-4-yl]-4-piperazin-1-yl-pyrido[3,4-d]pyrimidine], the pIC50 was above 7.00.
Regarding `COc1cccc(Nc2cc(-c3nc(N4CCNCC4)c4c(C5CC5)cncc4n3)ccn2)c1` [Example 571, [4-(5-Cyclopropyl-4-piperazin-1-yl-pyrido[3,4-d]pyrimidin-2-yl)-pyridin-2-yl]-(3-methoxy-phenyl)-amine], the pIC50 was above 7.00.
To `Fc1ccc(Nc2cc(-c3nc(N4CCNCC4)c4c(C5CC5)cncc4n3)ccn2)c(Cl)c1` [Example 570, (2-Chloro-4-fluoro-phenyl)-[4-(5-cyclopropyl-4-piperazin-1-yl-pyrido[3,4-d]pyrimidin-2-yl)-pyridin-2-yl]-amine] belongs above 7.00.
The value for `Cc1ccc(F)cc1Nc1cc(-c2nc(N3CCNCC3)c3c(C4CC4)cncc3n2)ccn1` [Example 523, [4-(5-Cyclopropyl-4-piperazin-1-yl-pyrido[3,4-d]pyrimidin-2-yl)-pyridin-2-yl]-(5-fluoro-2-methyl-phenyl)-amine] was above 7.00; that for `CCn1nc(Nc2cc(-c3nc(N4CCNCC4)c4c(C5CC5)cncc4n3)ccn2)cc1C` [Example 780, [4-(5-Cyclopropyl-4-piperazin-1-yl-pyrido[3,4-d]pyrimidin-2-yl)-pyridin-2-yl]-(1-ethyl-5-methyl-1H-pyrazol-3-yl)-amine] was above 7.00.
As to `COc1cncc2nc(-c3ccnc(Nc4cc(C)on4)c3)nc(N3CCNCC3)c12` [Example 496, [4-(5-Methoxy-4-piperazin-1-yl-pyrido[3,4-d]pyrimidin-2-yl)-pyridin-2-yl]-(5-methyl-isoxazol-3-yl)-amine], the pIC50 was 4.40 to 5.00.
Regarding `c1ccc(C[C@@H]2CNCCN2c2nc(-c3ccncc3)nc3cnccc23)cc1` [Example 29, (2R)-2-benzyl-1-[2-(pyridin-4-yl)-pyrido[3,4-d]-pyrimidin-4-yl]-piperazine], the pIC50 is 5.00 to 6.00.
Consider `COc1cncc2nc(-c3ccnc(NC(=O)Cc4ccc(C(F)(F)F)cc4)c3)nc(N3CCNCC3)c12` [Example 391, N-[4-(5-Methoxy-4-piperazin-1-yl-pyrido[3,4-d]pyrimidin-2-yl)-pyridin-2-yl]-2-(4-trifluoromethyl-phenyl)-acetamide], for which the pIC50 was above 7.00.
Take `COc1cncc2nc(-c3ccnc(Nc4c(F)cc(F)cc4F)c3)nc(N3CCNCC3)c12` [Example 441, [4-(5-Methoxy-4-piperazin-1-yl-pyrido[3,4-d]pyrimidin-2-yl)-pyridin-2-yl]-(2,4,6-trifluoro-phenyl)-amine]: the pIC50 was above 7.00.
For the compound `COCCNC(=O)C1CCN(c2nc(-c3ccnc(Nc4c(F)cccc4F)c3)nc3cncc(C4CC4)c23)CC1` [Example 739, 1-{5-Cyclopropyl-2-[2-(2,6-difluoro-phenylamino)-pyridin-4-yl]-pyrido[3,4-d]pyrimidin-4-yl}-piperidine-4-carboxylic acid (2-methoxy-ethyl)-amide], the negative logarithm of the IC50 (pIC50) was 6.00 to 7.00.
`COc1cncc2nc(-c3ccnc(Nc4ccccc4)c3)nc(N3CCN[C@@H](CO)C3)c12` [Example 434, {(R)-4-[5-Methoxy-2-(2-phenylamino-pyridin-4-yl)-pyrido[3,4-d]pyrimidin-4-yl]-piperazin-2-yl}-methanol]: the pIC50 was above 7.00.
Turning to `c1ccc2c(c1)[nH]c1nccc(-c3nc(N4CCNCC4)c4ccncc4n3)c12` [Example 2091, 4-(4-Piperazin-1-yl-pyrido[3,4-d]pyrimidin-2-yl)-9H-pyrido[2,3-b]indole], the pIC50 is above 7.00.
In the case of `NC[C@H](Cc1ccccc1)Nc1nc(-c2ccncc2)nc2cnccc12` [Example 28, N-[(2S)-1-amino-3-phenylpropan-2-yl]-2-(pyridin-4-yl)-pyrido[3,4-d]-pyrimidin-4-amine], the pIC50 was 6.00 to 7.00.
